What all share (experiment): relative viability (nuclei count vs DMSO), 5 days (fraction); higher = more cells survive
Compound in assay [1]: COc1cc2nc(N3CCCN(C)CC3)nc(NC3CCN(Cc4ccccc4)CC3)c2cc1OC + CC(=O)Nc1cccc(-n2c(=O)n(C3CC3)c(=O)c3c(Nc4ccc(I)cc4F)n(C)c(=O)c(C)c32)c1 [Trametinib] (partner 0.02 µM)
Summed up: (§1)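 Nuclei were stained with Hoechst during a one-step fixation (final 0.05% Triton X-100, 1% formaldehyde, 1 ug/ml Hoechst) carried out 5 days after dosing, then counted on 4× images. The cells, lung cancer lines in 1536-well plates, had been dosed by pin tool the day after seeding with one drug alone or a fixed anchor-drug dose plus five library-drug doses (not always all listed) in √10 steps. Relative viability is the nuclei count in treated wells divided by that in vehicle wells, and each value is the median of duplicate plates.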

Compound in assay [2]: COc1cc2nc(N3CCCN(C)CC3)nc(NC3CCN(Cc4ccccc4)CC3)c2cc1OC + CC(=O)c1c(C)c2cnc(Nc3ccc(N4CCNCC4)cn3)nc2n(C2CCCC2)c1=O [Palbociclib] (partner 0.5 µM)
Summed up: as §1

Compound in assay [3]: COc1cc2nc(N3CCCN(C)CC3)nc(NC3CCN(Cc4ccccc4)CC3)c2cc1OC + CC1(C)CCC(c2ccc(Cl)cc2)=C(CN2CCN(c3ccc(C(=O)NS(=O)(=O)c4ccc(N[C@H](CCN5CCOCC5)CSc5ccccc5)c(S(=O)(=O)C(F)(F)F)c4)cc3)CC2)C1 [Navitoclax] (partner 0.5 µM)
Summed up:
as §1

Compound in assay [4]: COc1cc2nc(N3CCCN(C)CC3)nc(NC3CCN(Cc4ccccc4)CC3)c2cc1OC + C[C@]1(O)C[C@@H](c2nc(-c3ccc4ccc(-c5ccccc5)nc4c3)c3c(N)nccn32)C1 [Linsitinib] (partner 1 µM)
Summed up: as §1

Compound in assay [5]: COc1cc2nc(N3CCCN(C)CC3)nc(NC3CCN(Cc4ccccc4)CC3)c2cc1OC + Cc1nc(Nc2ncc(C(=O)Nc3c(C)cccc3Cl)s2)cc(N2CCN(CCO)CC2)n1 [Dasatinib] (partner 0.075 µM)
Summed up: as §1

With HCC-827, the relative viability in assay [1] (first compound 0.2 µM) was found to be 0.533; in assay [1] (first compound 0.6325 µM) it was 0.558; in assay [1] (first compound 2 µM) it was 0.518; in assay [1] (first compound 6.325 µM), 0.542; in assay [2] (first compound 0.2 µM) it was 0.478; in assay [2] (first compound 0.6325 µM) it was 0.448. Moreover, the relative viability in assay [2] (first compound 2 µM) is 0.437; in assay [2] (first compound 6.325 µM), 0.446; in assay [3] (first compound 0.2 µM) it was 1.01; in assay [3] (first compound 0.6325 µM) it was 1.01; in assay [3] (first compound 2 µM) it was 0.988; in assay [3] (first compound 6.325 µM), 1.01. The relative viability in assay [4] (first compound 0.2 µM) amounted to 1; in assay [4] (first compound 0.6325 µM) it was 0.969; in assay [4] (first compound 2 µM), 0.967; in assay [4] (first compound 6.325 µM), 0.941; in assay [5] (first compound 0.2 µM), 0.398; in assay [5] (first compound 0.6325 µM) it was 0.237. Also, the figures for the relative viability in assay [5] (first compound 2 µM) and in assay [5] (first compound 6.325 µM) were 0.258 and 0.379, respectively.

Turning to HOP-62, the relative viability in assay [1] (first compound 0.2 µM) came to 0.396; in assay [1] (first compound 0.6325 µM), 0.434; in assay [1] (first compound 2 µM) it was 0.459; in assay [1] (first compound 6.325 µM), 0.361; in assay [2] (first compound 0.2 µM), 0.436; in assay [2] (first compound 0.6325 µM) it was 0.386. Further, the relative viability in assay [2] (first compound 2 µM) is 0.506; in assay [2] (first compound 6.325 µM) it was 0.491; in assay [3] (first compound 0.2 µM), 0.856; in assay [3] (first compound 0.6325 µM) it was 1.07; in assay [3] (first compound 2 µM) it was 1.15; in assay [3] (first compound 6.325 µM) it was 1.02. Moreover, the relative viability in assay [4] (first compound 0.2 µM) was 0.878; in assay [4] (first compound 0.6325 µM), 0.992; in assay [4] (first compound 2 µM) it was 1.03; in assay [4] (first compound 6.325 µM) it was 0.7; in assay [5] (first compound 0.2 µM) it was 0.748; in assay [5] (first compound 0.6325 µM), 0.62. For the same cell line, the relative viability came out at 0.711 in assay [5] (first compound 2 µM) and 0.65 in assay [5] (first compound 6.325 µM).

LC-2-ad: the relative viability in assay [1] (first compound 0.2 µM) amounted to 0.934; in assay [1] (first compound 0.6325 µM), 0.871; in assay [1] (first compound 2 µM), 0.942; in assay [1] (first compound 6.325 µM), 0.941; in assay [2] (first compound 0.2 µM), 0.509; in assay [2] (first compound 0.6325 µM) it was 0.533. For the same cell line, the relative viability in assay [2] (first compound 2 µM) was 0.444; in assay [2] (first compound 6.325 µM), 0.52; in assay [3] (first compound 0.2 µM) it was 0.363; in assay [3] (first compound 0.6325 µM), 0.447; in assay [3] (first compound 2 µM), 0.444; in assay [3] (first compound 6.325 µM) it was 0.397. Further, the relative viability came out at 0.889 in assay [4] (first compound 0.2 µM); 0.818 in assay [4] (first compound 0.6325 µM); 0.891 in assay [4] (first compound 2 µM); 0.833 in assay [4] (first compound 6.325 µM); 0.493 in assay [5] (first compound 0.2 µM); 0.618 in assay [5] (first compound 0.6325 µM). The results for the relative viability in assay [5] (first compound 2 µM) and in assay [5] (first compound 6.325 µM) were 0.804 and 0.65, respectively.

LCLC-97TM1: the relative viability in assay [1] (first compound 0.2 µM) worked out at 0.181; in assay [1] (first compound 0.6325 µM), 0.166; in assay [1] (first compound 2 µM), 0.225; in assay [1] (first compound 6.325 µM), 0.195; in assay [2] (first compound 0.2 µM), 0.219; in assay [2] (first compound 0.6325 µM), 0.231. Besides, the relative viability in assay [2] (first compound 2 µM) was 0.254; in assay [2] (first compound 6.325 µM), 0.238; in assay [3] (first compound 0.2 µM), 0.37; in assay [3] (first compound 2 µM) it was 0.34; in assay [3] (first compound 6.325 µM) it was 0.444; in assay [4] (first compound 0.2 µM), 0.176. Further, the relative viability in assay [4] (first compound 2 µM) was determined as 0.159; in assay [4] (first compound 6.325 µM) it was 0.195; in assay [5] (first compound 0.2 µM), 0.857; in assay [5] (first compound 0.6325 µM) it was 0.701; in assay [5] (first compound 2 µM) it was 0.877; in assay [5] (first compound 6.325 µM), 0.915.

Take LK-2: the relative viability in assay [1] (first compound 0.2 µM) amounted to 0.813; in assay [1] (first compound 0.6325 µM), 0.928; in assay [1] (first compound 2 µM) it was 0.633; in assay [1] (first compound 6.325 µM), 0.881; in assay [2] (first compound 0.2 µM), 0.658; in assay [2] (first compound 0.6325 µM), 0.884. The relative viability in assay [2] (first compound 2 µM) is 0.841; in assay [2] (first compound 6.325 µM), 0.598; in assay [3] (first compound 0.2 µM), 0.91; in assay [3] (first compound 0.6325 µM), 0.843; in assay [3] (first compound 2 µM), 1.16; in assay [3] (first compound 6.325 µM), 0.637. For the same cell line, the relative viability in assay [4] (first compound 0.2 µM) came out at 0.472; in assay [4] (first compound 0.6325 µM) it was 0.539; in assay [4] (first compound 2 µM), 0.624; in assay [4] (first compound 6.325 µM), 0.644; in assay [5] (first compound 0.2 µM), 0.35; in assay [5] (first compound 0.6325 µM), 0.341. The figures for the relative viability in assay [5] (first compound 2 µM) and in assay [5] (first compound 6.325 µM) were 0.261 and 0.324, respectively.

As for LOU-NH91, the relative viability was found to be 0.801 in assay [1] (first compound 0.2 µM); 0.778 in assay [1] (first compound 0.6325 µM); 0.781 in assay [1] (first compound 2 µM); 0.811 in assay [1] (first compound 6.325 µM); 0.464 in assay [2] (first compound 0.2 µM); 0.424 in assay [2] (first compound 0.6325 µM). Besides, the relative viability in assay [2] (first compound 2 µM) was found to be 0.588; in assay [2] (first compound 6.325 µM) it was 0.552; in assay [3] (first compound 0.2 µM) it was 0.717; in assay [3] (first compound 0.6325 µM), 0.688; in assay [3] (first compound 2 µM), 0.578; in assay [3] (first compound 6.325 µM), 0.742. Besides, the relative viability in assay [4] (first compound 0.2 µM) was found to be 0.93; in assay [4] (first compound 0.6325 µM), 0.978; in assay [4] (first compound 2 µM), 0.669; in assay [4] (first compound 6.325 µM), 0.979; in assay [5] (first compound 0.2 µM) it was 0.525; in assay [5] (first compound 0.6325 µM) it was 0.686. For the same cell line, the relative viability in assay [5] (first compound 2 µM) is 0.439; in assay [5] (first compound 6.325 µM) it was 0.59.

For LU99A, the relative viability in assay [1] (first compound 0.2 µM) turned out to be 0.531; in assay [1] (first compound 0.6325 µM), 0.47; in assay [1] (first compound 2 µM), 0.541; in assay [1] (first compound 6.325 µM), 0.526; in assay [2] (first compound 0.2 µM), 0.379; in assay [2] (first compound 0.6325 µM) it was 0.38. For the same cell line, the relative viability in assay [2] (first compound 2 µM) was found to be 0.371; in assay [2] (first compound 6.325 µM) it was 0.412; in assay [3] (first compound 0.2 µM), 0.899; in assay [3] (first compound 0.6325 µM), 0.689; in assay [3] (first compound 2 µM), 0.625; in assay [3] (first compound 6.325 µM), 0.815. Also, the relative viability in assay [4] (first compound 0.2 µM) is 0.628; in assay [4] (first compound 0.6325 µM) it was 0.537; in assay [4] (first compound 2 µM), 0.552; in assay [4] (first compound 6.325 µM), 0.549; in assay [5] (first compound 0.2 µM), 0.588; in assay [5] (first compound 0.6325 µM), 0.552. Besides, the relative viability stood at 0.47 in assay [5] (first compound 2 µM) and 0.433 in assay [5] (first compound 6.325 µM).

The values are drawn from the supplement of paper PMC10307832.
